# Laboratory results published in PubChem BioAssay AID270 (DTP/NCI, 2004).
# Values joined by “and” are separate entries in the source; they are usually repeats but may differ in a detail not shown here. Identical values can stand only once. Results filed as inconclusive are left out.
# Test system: BDF1 mice, s.c. Lewis lung carcinoma, T/C %
# Assay: NCI In Vivo Anticancer Drug Screen. Data for tumor model Lewis Lung Carcinoma (subcutaneous) in B6D2F1 (BDF1) mice
# How it was run: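 Transplanted tumors grown in mice; compound vs vehicle dosing; endpoint survival or tumor size; ratio T/C.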
# [1] = endpoint: mean tumor weight, dose: 50.0 mg/kg/injection, schedule: Q01DX011 (ip), vehicle: saline, higher = larger tumour
# [2] = endpoint: mean tumor weight, dose: 100.0 mg/kg/injection, schedule: Q01DX011 (ip), vehicle: saline, higher = larger tumour
# [3] = endpoint: mean tumor weight, dose: 200.0 mg/kg/injection, schedule: Q01DX011 (ip), vehicle: saline, higher = larger tumour
smiles,measurement,setting,value
C/C(=N\N=C(/C)c1ccc(-c2ccccc2)cc1)c1ccc(-c2ccccc2)cc1,T/C,"endpoint: mean tumor weight, dose: 25.0 mg/kg/injection, schedule: Q01DX011 (ip), vehicle: saline, higher = larger tumour",84 % of control
same,T/C,[1],85 % of control
same,T/C,[2],76 % of control
same,T/C,[3],46 % of control
CC(=O)OC1CCC(NC(=O)N(CCCl)N=O)CC1 (configuration not stated),T/C,"endpoint: median survival time, dose: 24.0 mg/kg/injection, schedule: Q01DX001 (ip), vehicle: other, higher = longer survival",95 % of control
COc1cccc(/C=N/C(=S)NC2(C)C3CCC(C3)C2(C)C)c1O (configuration not stated),T/C,"endpoint: median survival time, dose: 6.25 mg/kg/injection, schedule: Q01DX009 (ip), vehicle: olive oil, sesame oil, peanut oil, higher = longer survival",98 % of control
same,T/C,"endpoint: median survival time, dose: 12.5 mg/kg/injection, schedule: Q01DX009 (ip), vehicle: olive oil, sesame oil, peanut oil, higher = longer survival",94 % of control
same,T/C,"endpoint: median survival time, dose: 100.0 mg/kg/injection, schedule: Q01DX009 (ip), vehicle: olive oil, sesame oil, peanut oil, higher = longer survival",90 % of control
O=[N+]([O-])O.[Ga],T/C,"endpoint: median survival time, dose: 8.0 mg/kg/injection, schedule: Q01DX009 (ip), vehicle: saline, higher = longer survival",118 % of control
same,T/C,"endpoint: median survival time, dose: 16.0 mg/kg/injection, schedule: Q01DX009 (ip), vehicle: saline, higher = longer survival",158 % of control
same,T/C,"endpoint: median survival time, dose: 32.0 mg/kg/injection, schedule: Q01DX009 (ip), vehicle: saline, higher = longer survival",99 % of control
C[C@]12CCC(=O)C=C1CC[C@@H]1[C@@H]2[C@@H](O)C[C@@]2(C)[C@H]1CC[C@]2(O)C(=O)CF,T/C,"endpoint: mean tumor weight, dose: 3.13 mg/kg/injection, schedule: Q01DX011 (sc), vehicle: steriod suspending solution, higher = larger tumour",70 % of control
same,T/C,"endpoint: mean tumor weight, dose: 6.25 mg/kg/injection, schedule: Q01DX011 (sc), vehicle: steriod suspending solution, higher = larger tumour",68 % of control
same,T/C,"endpoint: mean tumor weight, dose: 12.5 mg/kg/injection, schedule: Q01DX011 (sc), vehicle: steriod suspending solution, higher = larger tumour",65 % of control
same,T/C,"endpoint: mean tumor weight, dose: 25.0 mg/kg/injection, schedule: Q01DX011 (sc), vehicle: steriod suspending solution, higher = larger tumour",33 % of control
C[C@]12CCC(=O)C=C1CC[C@@H]1[C@@H]2C(=O)C[C@@]2(C)[C@H]1CC[C@]2(O)C(=O)CO,T/C,"endpoint: mean tumor weight, dose: 100.0 mg/kg/injection, schedule: Q01DX011 (ip), vehicle: steriod suspending solution, higher = larger tumour",58 % of control
same,T/C,"endpoint: median survival time, dose: 5.0 mg/kg/injection, schedule: Q02DX009 (ip), vehicle: Klucel (hydroxypropylcellulose) (HPC), higher = longer survival",102 % of control
same,T/C,"endpoint: median survival time, dose: 10.0 mg/kg/injection, schedule: Q02DX009 (ip), vehicle: Klucel (hydroxypropylcellulose) (HPC), higher = longer survival",102 % of control
same,T/C,"endpoint: median survival time, dose: 20.0 mg/kg/injection, schedule: Q02DX009 (ip), vehicle: Klucel (hydroxypropylcellulose) (HPC), higher = longer survival",101 % of control
same,T/C,"endpoint: median survival time, dose: 40.0 mg/kg/injection, schedule: Q02DX009 (ip), vehicle: Klucel (hydroxypropylcellulose) (HPC), higher = longer survival",97 % of control and 102 % of control
COc1ccc2c(c1)CC[C@@H]1[C@@H]2CC[C@@]2(C)[C@H]1CC[C@@]2(O)C(F)=C(F)F,T/C,"endpoint: median survival time, dose: 12.5 mg/kg/injection, schedule: Q01DX009 (sc), vehicle: steriod suspending solution, higher = longer survival",93 % of control
Oc1cc(O)c2c(c1)O[C@H](c1ccc(O)c(O)c1)[C@@H](O)C2,T/C,[1],76 % of control
same,T/C,[2],94 % of control
same,T/C,[3],72 % of control
same,T/C,"endpoint: mean tumor weight, dose: 400.0 mg/kg/injection, schedule: Q01DX011 (ip), vehicle: saline, higher = larger tumour",74 % of control
COc1cc(-c2ccc(Nc3ccccc3C(=O)O)c(OC)c2)ccc1N,T/C,"endpoint: mean tumor weight, dose: 10.0 mg/kg/injection, schedule: Q01DX011 (ip), vehicle: carboxymethylcellulose (CMC), higher = larger tumour",86 % of control
same,T/C,"endpoint: mean tumor weight, dose: 20.0 mg/kg/injection, schedule: Q01DX011 (ip), vehicle: carboxymethylcellulose (CMC), higher = larger tumour",72 % of control
same,T/C,"endpoint: mean tumor weight, dose: 40.0 mg/kg/injection, schedule: Q01DX011 (ip), vehicle: carboxymethylcellulose (CMC), higher = larger tumour",37 % of control
COc1cc(C[C@H]2c3cc(OC)c(OC)cc3CCN2C)c(Oc2cc3c(cc2OC)-c2c(OC)c(OC)cc4c2[C@H](C3)N(C)CC4)cc1OC,T/C,"endpoint: mean tumor weight, dose: 50.0 mg/kg/injection, schedule: Q01DX011 (ip), vehicle: carboxymethylcellulose (CMC), higher = larger tumour",49 % of control
same,T/C,"endpoint: mean tumor weight, dose: 100.0 mg/kg/injection, schedule: Q01DX011 (ip), vehicle: carboxymethylcellulose (CMC), higher = larger tumour",26 % of control
O=C1N(Br)C(=O)C(c2ccc(Cl)cc2)(c2ccc(Cl)cc2)N1Br,T/C,"endpoint: median survival time, dose: 3.12 mg/kg/injection, schedule: Q01DX009 (ip), vehicle: Klucel (hydroxypropylcellulose) (HPC), higher = longer survival",100 % of control
same,T/C,"endpoint: median survival time, dose: 6.25 mg/kg/injection, schedule: Q01DX009 (ip), vehicle: Klucel (hydroxypropylcellulose) (HPC), higher = longer survival",97 % of control
same,T/C,"endpoint: median survival time, dose: 12.5 mg/kg/injection, schedule: Q01DX009 (ip), vehicle: Klucel (hydroxypropylcellulose) (HPC), higher = longer survival",102 % of control
same,T/C,"endpoint: median survival time, dose: 25.0 mg/kg/injection, schedule: Q01DX009 (ip), vehicle: Klucel (hydroxypropylcellulose) (HPC), higher = longer survival",96 % of control
CC1OC(O[C@@H]2C=C3CC[C@@H]4[C@H](CC[C@]5(C)[C@@H](c6ccc(=O)oc6)CC[C@]45O)[C@@]3(C)CC2)C(O)C(OC2OC(CO)C(O)C(O)C2O)C1O (some centres not stated),T/C,"endpoint: mean tumor weight, dose: 1.2 mg/kg/injection, schedule: Q01DX011 (ip), vehicle: carboxymethylcellulose (CMC), higher = larger tumour",106 % of control
same,T/C,"endpoint: mean tumor weight, dose: 2.5 mg/kg/injection, schedule: Q01DX011 (ip), vehicle: carboxymethylcellulose (CMC), higher = larger tumour",102 % of control
same,T/C,"endpoint: mean tumor weight, dose: 5.0 mg/kg/injection, schedule: Q01DX011 (ip), vehicle: carboxymethylcellulose (CMC), higher = larger tumour",80 % of control
